Experimental findings from the NIST ThermoML archive (doi:10.1021/acs.jced.5b00796) are described below.

The conditions of this data set: Liquid, Ebulliometric method (Recirculating still).

Each structure is given as a SMILES string. ± gives the expanded uncertainty stated by the source.

With `CC#N` [acetonitrile], the “vapor or sublimation pressure” value (354.25 K) is listed as 101.32 ± 1 kPa.

On to `CO` [methanol], for which, for the setting “337.85 K”, the “vapor or sublimation pressure” value worked out at 101.32 ± 1 kPa.
